Key:
[1] = test system: Trichophyton mentagrophytes; assay: Antifungal activity against Trichophyton mentagrophytes at 60 ug/disk; assay type: functional; conditions: read-out: IZ
[2] = Cytotoxicity against african green monkey BSC1 cells at 60 ug/disk; assay type: cell-based; conditions: chlorocebus aethiops, bsc-1
[3] = test system: Candida albicans; assay: Antifungal activity against Candida albicans at 60 ug/disk; assay type: functional; conditions: read-out: IZ

Compound: COC(=O)c1ccc(O)c(OC)c1 [METHYL VANILLATE]
- zone of inhibition at 60 µg/disc [1]: 0 mm
- Activity [2]: 25%
- zone of inhibition at 60 µg/disc [3]: 0 mm

Compound: COC(=O)c1ccc(OCC=C(C)C)c(OC)c1
- zone of inhibition at 60 µg/disc [1]: 2 mm
- Activity [2]: 50%
- zone of inhibition at 60 µg/disc [3]: 1 mm

Source: ChEMBL document CHEMBL1158265, “Isoprenyl phenyl ethers from liverworts of the genus Trichocolea: cytotoxic activity, structural corrections, and synthesis” (J Nat Prod, 1996)
